Experimental data taken from patent US5670501A, “N-substituted 9-alkyladenines” (Discovery Therapeutics, Inc., priority 1994, dated 1997).

Columns and labels:
adenosine A1 receptor [1] = target: T1, adenosine A1 receptor (Cavia porcellus, UniProt P47745); test: A1 in vitro functional test: negative inotropic response, left atria, antagonism of NECA; type: cell-based, guinea pig; details: for Kb: guinea pig left atria, electrically evoked twitch, NECA agonist, 31° C, Schild plot, read-out: A1 KB (antagonist dissociation constant); for Selectivity Ratio (A2 KB /A1 KB): functional
T1 construct: from tissue; host or cells: isolated guinea pig left atria
T1 sequence (P47745 1-326): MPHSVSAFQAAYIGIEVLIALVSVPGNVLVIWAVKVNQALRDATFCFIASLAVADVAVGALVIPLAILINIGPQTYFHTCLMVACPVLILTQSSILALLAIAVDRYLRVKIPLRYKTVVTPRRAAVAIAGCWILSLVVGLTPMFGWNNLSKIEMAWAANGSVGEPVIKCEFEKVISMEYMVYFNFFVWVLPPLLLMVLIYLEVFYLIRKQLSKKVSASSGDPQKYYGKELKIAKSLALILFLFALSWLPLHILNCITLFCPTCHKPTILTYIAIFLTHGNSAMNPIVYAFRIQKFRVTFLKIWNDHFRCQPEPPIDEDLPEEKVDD
Description: 2. Adenosine--A1 /A2 In Vitro Functional Tests
(A1 Assay: Negative inotropic response)-Guinea pig left atria were placed in organ baths filled with Krebs Henseleit solution gassed with 95% O2 and 5% CO2 and maintained at a temperature of 31° C. An initial resting tension of 1 gm. was placed on each tissue, which was allowed to equilibrate. Atria were stimulated electrically to produce twitch responses. A dose-response curve for the inhibition of the electrically-evoked twitch response was obtained by cumulative addition of the adenosine agonist […]. After the washout of the tissue, a fixed concentration of test compound was added and the tissue allowed to equilibrate for 1 hr. before cumulative additions of the adenosine agonist 5'-N-ethylcarboxamidoadenosine (NECA) to generate a new dose response curve. This procedure was repeated with different fixed concentrations of test compounds to generate a family of dose response curves. Schild plots were constructed from the resultant concentration-effect curves, and KB (antagonist dissociation constant) values were obtained. The results (see Table VII) are expressed as KB values (concentration of test compound such that one-half of the tissue adenosine receptor population is occupied by the test compound).

adenosine A2 receptor = test: Receptor affinity (radioligand binding), A2, [3H]NECA; parameters: species or system bovine / guinea pig; details: room temperature, 1 hour
Description: (§1) 1. Receptor Affinity Experiments (Radioligand Binding)
(§2) Tissues (bovine caudate, guinea pig cortex, guinea pig striatum) were homogenized with a Brinkman polytron and the membranes were collected by centrifugation at 40,000×g at 4° C. for 10 min. The membranes were washed by resuspension and centrifugation, resuspended, and incubated in the presence of 1 U/ml adenosine deaminase for 15-30 min. at 37° C. The membranes were diluted, centrifuged once, and resuspended to a final concentration of 0.5-2 mg protein/ml. Adenosine deaminase (0.1 U/ml) was included in the final resuspension. Assays were initiated by addition of membranes. The compounds of the present invention were subjected to the following experimental conditions: A1 determinations/incubated with [^3 H]CHA at room temperature for 2 hours, A2 determinations/incubated with [^3 H]NECA at room temperature for 1 hour. Assays were terminated by filtration, and the filters were counted in scintillation counters.

adenosine A1 receptor [2] = target: T2, adenosine A1 receptor (Bos taurus, UniProt P28190); test: Receptor affinity (radioligand binding), A1, [3H]CHA; parameters: species or system bovine; details: for Ki: [3H]CHA, room temperature, 2 hours, tissues listed: bovine caudate, guinea pig cortex, guinea pig striatum (only Example 13 marked guinea pig); for Selectivity Ratio (A2 Ki /A1 Ki): radioligand binding
T2 construct: were homogenized with a Brinkman polytron and the membranes were collected by centrifugation; from tissue; host or cells: bovine caudate membranes
T2 sequence (P28190 1-326): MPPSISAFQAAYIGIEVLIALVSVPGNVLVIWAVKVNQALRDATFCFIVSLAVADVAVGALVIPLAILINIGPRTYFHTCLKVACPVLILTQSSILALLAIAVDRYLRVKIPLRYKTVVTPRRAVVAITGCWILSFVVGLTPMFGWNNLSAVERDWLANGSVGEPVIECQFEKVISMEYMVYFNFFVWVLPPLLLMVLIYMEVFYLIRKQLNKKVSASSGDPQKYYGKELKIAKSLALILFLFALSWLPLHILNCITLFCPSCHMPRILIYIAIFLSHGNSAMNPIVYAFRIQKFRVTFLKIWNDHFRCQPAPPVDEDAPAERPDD
Description: as §1, §2

Kb (adenosine A1 receptor [1]) [nM]	Ki (adenosine A2 receptor) [nM]	Ki (adenosine A1 receptor [2]) [nM]	Selectivity Ratio (A2 Ki /A1 Ki) (adenosine A1 receptor [2])	Selectivity Ratio (A2 KB /A1 KB) (adenosine A1 receptor [1])	SMILES
117	331	1	331		CCN(CC)c1nc2c(N[C@H]3C[C@H]4CC[C@@H]3C4)ncnc2n1C (relative stereo) [Example 10, (±)-N^6-(endo-2'-norbornyl)-8-diethylamino-9-methyladenine]
	15100	69.2	218		Cn1cnc2c(N[C@H]3C[C@@H]4CC(=O)[C@H]3C4)ncnc21 (relative stereo) [Example 34]
257	3550	12.9	275	> 390	Cn1c(C(N)=O)nc2c(N[C@H]3C[C@H]4CC[C@@H]3C4)ncnc21 (relative stereo) [Example 2, (±)-N^6-(endo-2'-norbornyl)-8-amido-9-methyladenine]
4	234	0.0891	2,626	4450	CC(C)N(C)c1nc2c(N[C@H]3C[C@@H]4C[C@H]3C[C@@H]4O)ncnc2n1C (relative stereo) [Example 16, (±)-N^6-[endo-2'-(endo-5'-hydroxy)norbornyl]-8-isopropylmethylamino-9-methyladenine]
28800	15500	468	33		Cn1cnc2c(N[C@@H]3C[C@H]4C[C@@H]3c3ccccc34)ncnc21 (relative stereo) [Example 39]
	> 10000	42	> 238		Cn1c(N2CCOCC2)nc2c(NC3CCCC3)ncnc21 [Example 15]
	11000	45.8	240		CCCCN(C)c1nc2c(N[C@H]3C[C@H]4CC[C@@H]3C4)ncnc2n1C (relative stereo) [Example 11]
105	513	12	43	250	COc1nc2c(N[C@H]3C[C@H]4CC[C@@H]3C4)ncnc2n1C (relative stereo) [Example 4, (±)-N^6-(endo-2'-norbornyl)-8-methoxy-9-methyladenine]
4680	21400	141	152		Cn1cnc2c(N[C@H]3C[C@@H]4C[C@H]3[C@H](O)C4)ncnc21 (relative stereo) [Example 24]
240	> 10000	191	> 52		Cn1c(N2CCCCC2)nc2c(N[C@H]3C[C@H]4CC[C@@H]3C4)ncnc21 (relative stereo) [Example 20, (±)-N^6-(endo-2'-norbornyl)-8-piperidinyl-9-methyladenine]
65	398	6.03	66	> 1540	CSc1nc2c(N[C@H]3C[C@H]4CC[C@@H]3C4)ncnc2n1C (relative stereo) [Example 3, (±)-N^6-[endo-2'-norbornyl]-8-methylthio-9-methyladenine]
	10000	7.94	1,259		Cn1c(N2CCSCC2)nc2c(N[C@H]3C[C@H]4CC[C@@H]3C4)ncnc21 (relative stereo) [Example 9]
	> 10000	257	> 39		CCCn1cnc2c(N[C@@H]3C[C@H]4C[C@@H]3C[C@@H]4O)ncnc21 (relative stereo) [Example 43]
110	617	3.71	166	362	CN(C)c1nc2c(N[C@H]3C[C@H]4CC[C@@H]3C4)ncnc2n1C (relative stereo) [Example 5, (+)-N^6-(endo-2'-norbornyl)-8-dimethylamino-9-methyladenine]
72	275	2.75	100		CN(C)c1nc2c(N[C@H]3C[C@@H]4C[C@H]3C[C@@H]4O)ncnc2n1C (relative stereo) [Example 18, (±)-N^6-[endo-2'-(endo-5'-hydroxy)norbornyl]-8-dimethylamino-9-methyladenine]
	5750	9.55	602		CC(C)Nc1nc2c(N[C@@H]3C[C@H]4C[C@@H]3C[C@H]4O)ncnc2n1C (relative stereo) [Example 26]
	436	3.72	117		CCN(CC)c1nc2c(NC3CCCC3)ncnc2n1C [Example 14]
	35500	295	120		Cn1cnc2c(N[C@H]3C[C@H]4C[C@@H]3[C@H](O)C4)ncnc21 (relative stereo) [Example 35]
	> 10000	24	> 417		Cn1c(N2CCOCC2)nc2c(N[C@H]3C[C@H]4CC[C@@H]3C4)ncnc21 (relative stereo) [Example 6]
	> 10000	19	> 526		Cn1c(N2CCCC2)nc2c(N[C@H]3C[C@H]4CC[C@@H]3C4)ncnc21 (relative stereo) [Example 7]
	4570	8.31	550		CN(C)c1nc2c(N[C@@H]3C[C@@H]4CC(=O)[C@H]3C4)ncnc2n1C (relative stereo) [Example 28]
	6460	28.8	224		CCCn1cnc2c(N[C@@H]3C[C@H]4C[C@@H]3C[C@H]4O)ncnc21 (relative stereo) [Example 42]
	> 10000	295	> 34		CC(C)n1cnc2c(N[C@@H]3C[C@H]4C[C@@H]3C[C@@H]4O)ncnc21 (relative stereo) [Example 46]
	21400	251	85		CC(C)n1cnc2c(N[C@@H]3C[C@H]4C[C@@H]3CC4=O)ncnc21 (relative stereo) [Example 44]
	4570	11.5	397		Cn1cnc2c(N[C@H]3C[C@H]4C[C@@H]3c3ccc(O)cc34)ncnc21 (relative stereo) [Example 37, (±)-N^6-(exo-2'-amino-6'-hydroxybenzonorbornyl)-9-methyladenine]
	11500	42.7	269		Cn1cnc2c(N[C@H]3C[C@H]4C[C@@H]3CC4=O)ncnc21 (relative stereo) [Example 33]
	> 10000	19	> 526		Cn1c(N2CCOCC2)nc2c(N[C@H]3C[C@@H]4C[C@H]3C[C@@H]4O)ncnc21 (relative stereo) [Example 25]
	> 10000	501	> 20		Cn1cnc2c(N[C@@H]3C[C@H]4C[C@@H]3CC4=O)ncnc21 (relative stereo) [Example 29, (±)-N^6-[endo-2'-aminonorbornan-5-one]-9-methyladenine]
	661	5.01	132		Cn1c(Br)nc2c(N[C@@H]3C[C@H]4C[C@@H]3C[C@@H]4O)ncnc21 (relative stereo) [Example 27]
	> 10000	295	> 34		CC(C)n1cnc2c(N[C@@H]3C[C@H]4C[C@@H]3C[C@H]4O)ncnc21 (relative stereo) [Example 45]
